Results as given in PubChem BioAssay (NCI).
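1) Cells in 96-well plates. 2) Compound, 48 h, 5 concentrations. 3) Linear interpolation between surrounding doses. 4) Unreached endpoint = highest concentration. TGI is the concentration that stops growth completely.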

Columns and labels:
Test in all cases: DTP human tumour cell line panel, 48 h
UACC-257 melanoma = system: UACC-257 melanoma
M19-MEL melanoma = system: M19-MEL melanoma
SNB-75 CNS = system: SNB-75 CNS
A498 renal = system: A498 renal
KM12 colon = system: KM12 colon
LXFL 529 NSCLC = system: LXFL 529 NSCLC
OVCAR-5 ovarian = system: OVCAR-5 ovarian
KM20L2 colon = system: KM20L2 colon
HT29 colon = system: HT29 colon
DMS 114 small cell lung = system: DMS 114 small cell lung

Row | Compound | TGI (UACC-257 melanoma) [µM] | TGI (M19-MEL melanoma) [µM] | TGI (SNB-75 CNS) [µM] | TGI (A498 renal) [µM] | TGI (KM12 colon) [µM] | TGI (LXFL 529 NSCLC) [µM] | TGI (OVCAR-5 ovarian) [µM] | TGI (KM20L2 colon) [µM] | TGI (HT29 colon) [µM] | TGI (DMS 114 small cell lung) [µM]
1 | CC1C[C@H](C)CC(C(O)CC2CC(=O)N(Cc3ccccc3)C(=O)C2)C1O (some centres not stated) | > 100 | > 100 | > 100 | > 100 | > 100 | > 100 | > 100 | > 100 | > 100 | > 100
2 | CC(/C(=N\Nc1ccccc1)c1ccc(O)cc1)C1C(=O)Oc2ccccc21 (configuration not stated) | > 100 | > 100 | > 100 | > 100 | > 100 | > 100 | – | > 100 | > 100 | > 100
3 | NS(=O)(=O)c1ccc(NC2=CC(=O)C(=O)c3ccccc32)cc1 | > 100 | > 100 | > 100 | > 100 | > 100 | > 100 | > 100 | > 100 | > 100 | > 100
4 | N#Cc1c2c(c(N=P(c3ccccc3)(c3ccccc3)c3ccccc3)n3c1nc1ccccc13)CCCC2 | 57.8 | 67.8 | 69.7 | 73.2 | > 100 | > 100 | – | > 100 | 74.9 | 59.4
5 | COc1ccc(C2CC(c3cc(C)ccc3O)=NC(N)=N2)cc1 (configuration not stated) | > 100 | > 100 | > 100 | > 100 | > 100 | > 100 | > 100 | > 100 | > 100 | > 100
6 | CC1SC2=NC3=C(c4ccccc4C3=O)C(c3ccc(Cl)cc3)N2C1=O (configuration not stated) | > 100 | > 100 | > 100 | > 100 | > 100 | > 100 | > 100 | > 100 | > 100 | > 100
7 | Cc1cccc2c1N(C(=O)/C=C\C(=O)O)C(c1c(C)[nH]c3ccccc13)C2 (configuration not stated) | > 100 | 53.1 | > 10 | > 100 | > 100 | 28.6 | > 100 | > 100 | > 100 | 42.2
8 | O=C1CCC2CC(C(=O)c3ccccc3)CCC2CN1 (configuration not stated) (tested in a mixture with another compound) | > 100 | > 100 | > 100 | – | > 100 | > 100 | > 100 | > 100 | > 100 | > 100
9 | CCOC(=O)C1C2CCC(C2)C1(CCl)C(=O)OCC (configuration not stated) | > 100 | > 100 | – | > 100 | – | > 100 | > 100 | > 100 | > 100 | > 100
10 | COC(=O)C(CC(C)C)NC(=O)NC12CC3CC(CC(F)(C3)C1)C2 (configuration not stated) | > 100 | > 100 | > 100 | > 100 | > 100 | > 100 | > 100 | > 100 | > 100 | > 100
11 | O=C1c2ccccc2C(=O)N1CCN(CCN1C(=O)c2ccccc2C1=O)Cn1cccn1 | > 100 | > 100 | > 100 | > 100 | > 100 | > 100 | – | > 100 | – | 38.3
12 | CNCc1cc(OC)ccc1-c1ccc(OC)c(OC)c1OC | > 100 | > 100 | > 96.7 | > 100 | > 100 | > 100 | > 100 | > 100 | > 100 | > 100
13 | CC[P+](C)(C)c1ccccc1 | > 100 | > 100 | > 100 | > 100 | > 100 | > 100 | > 100 | > 100 | > 100 | > 100
14 | Cc1ccc(NC(=O)C(=O)C(C#N)c2nc(-c3ccc(-c4ccccc4)cc3)cs2)c(C)c1 (configuration not stated) | > 100 | > 100 | > 100 | > 100 | – | > 100 | > 100 | > 100 | > 1 | > 100
15 | NNC(=O)CNC(=O)c1ccc(Cl)cc1Cl | > 100 | > 100 | > 100 | > 100 | > 100 | > 100 | > 100 | > 100 | > 100 | > 100
16 | O=C(c1ccccc1)[C@H]1Nc2ccc(Cl)cc2C2c3ccccc3CC21 (some centres not stated) | 85.9 | > 100 | > 100 | – | > 100 | > 100 | > 100 | > 100 | > 100 | > 100
17 | CCCCCCCCOCC(O)COC(=O)CCCCCCC (configuration not stated) | > 100 | > 100 | – | > 100 | – | > 100 | > 100 | > 100 | > 100 | > 100
18 | O=C(c1ccccc1)N1C2CCC1C(C(F)(F)F)=C2C(F)(F)F | > 100 | > 100 | > 100 | > 100 | > 100 | > 100 | > 100 | > 100 | > 100 | > 100
19 | CC(=O)c1ccc(OCC(O)CO)cc1 (configuration not stated) | > 100 | > 100 | > 100 | > 100 | > 100 | > 100 | > 100 | > 100 | > 100 | > 100
20 | O=C(O)C[C@H]1CCCCC12CCOC2=O (some centres not stated) | > 100 | > 100 | > 100 | – | > 100 | > 100 | > 100 | > 100 | > 100 | > 100
21 | CC(=O)Nc1cc(N(CCOS(C)(=O)=O)CCOS(C)(=O)=O)ccc1N=O | > 100 | > 100 | > 100 | – | > 100 | > 100 | > 100 | > 100 | > 100 | > 100
22 | COc1c(C(=O)c2ccc([N+](=O)[O-])cc2)cc(C(C)(C)C)cc1C(C)(C)C | 59.3 | > 100 | > 100 | > 100 | > 100 | > 100 | > 100 | > 100 | 88 | 73.1
